The source of these data is ChEMBL document CHEMBL5442219.

Usually inhibition stands for the relative decrease from the control value, in per cent.

SMILES strings stand for the structures.

What all share (conditions): Compound concentration 10 µM
The target in test [1] is Beta-1 adrenergic receptor (Homo sapiens) (UniProt P08588).
Description: PDSP Primary Binding target: ADRB1 - Compounds are tested at 10 uM concentration, plate are incubated at room temperature in the dark for 90 minutes. Reaction are stopped by vacuum filtration onto 0.3% polyethyleneimine soaked filter mats using Filtermate harvester. Scintilation cocktail is then melted onto microwave-dried filters on a hot plate and the radio activity is counted in Microbia counter.
Test [2] concerns the target T1, 5-hydroxytryptamine receptor 1A (Homo sapiens) (UniProt P08908).
T1 sequence (whole entry): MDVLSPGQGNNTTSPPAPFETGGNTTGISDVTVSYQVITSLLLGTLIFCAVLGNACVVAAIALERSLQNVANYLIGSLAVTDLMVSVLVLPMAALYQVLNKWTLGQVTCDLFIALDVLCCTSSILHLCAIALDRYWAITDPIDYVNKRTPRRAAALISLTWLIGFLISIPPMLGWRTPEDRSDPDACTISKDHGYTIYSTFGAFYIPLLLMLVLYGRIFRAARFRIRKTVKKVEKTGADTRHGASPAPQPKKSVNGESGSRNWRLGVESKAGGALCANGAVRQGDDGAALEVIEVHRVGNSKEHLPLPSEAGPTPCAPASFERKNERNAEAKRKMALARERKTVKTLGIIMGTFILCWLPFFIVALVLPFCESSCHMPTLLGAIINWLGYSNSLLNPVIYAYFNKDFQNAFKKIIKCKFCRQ
Description: PDSP Primary Binding target: HTR1A - Compounds are tested at 10 uM concentration, plate are incubated at room temperature in the dark for 90 minutes. Reaction are stopped by vacuum filtration onto 0.3% polyethyleneimine soaked filter mats using Filtermate harvester. Scintilation cocktail is then melted onto microwave-dried filters on a hot plate and the radio activity is counted in Microbia counter.

The target in test [3] is T2, Alpha-1A adrenergic receptor (Homo sapiens) (UniProt P35348).
T2 sequence (whole entry): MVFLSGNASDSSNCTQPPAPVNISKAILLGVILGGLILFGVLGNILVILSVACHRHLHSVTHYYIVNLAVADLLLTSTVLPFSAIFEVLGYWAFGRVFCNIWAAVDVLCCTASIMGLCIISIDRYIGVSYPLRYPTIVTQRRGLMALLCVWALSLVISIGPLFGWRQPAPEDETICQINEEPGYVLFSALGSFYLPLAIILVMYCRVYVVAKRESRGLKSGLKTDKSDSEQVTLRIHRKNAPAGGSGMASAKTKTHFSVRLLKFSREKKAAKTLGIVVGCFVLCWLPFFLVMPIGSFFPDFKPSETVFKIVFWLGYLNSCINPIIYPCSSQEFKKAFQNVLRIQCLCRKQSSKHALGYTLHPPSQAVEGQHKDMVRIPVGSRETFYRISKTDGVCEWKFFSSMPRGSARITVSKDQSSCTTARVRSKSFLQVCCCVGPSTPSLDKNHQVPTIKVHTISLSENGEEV
Description: PDSP Primary Binding target: ADRA1A - Compounds are tested at 10 uM concentration, plate are incubated at room temperature in the dark for 90 minutes. Reaction are stopped by vacuum filtration onto 0.3% polyethyleneimine soaked filter mats using Filtermate harvester. Scintilation cocktail is then melted onto microwave-dried filters on a hot plate and the radio activity is counted in Microbia counter.

The target in test [4] is 5-hydroxytryptamine receptor 1B (Homo sapiens) (UniProt P28222).
Description: PDSP Primary Binding target: HTR1B - Compounds are tested at 10 uM concentration, plate are incubated at room temperature in the dark for 90 minutes. Reaction are stopped by vacuum filtration onto 0.3% polyethyleneimine soaked filter mats using Filtermate harvester. Scintilation cocktail is then melted onto microwave-dried filters on a hot plate and the radio activity is counted in Microbia counter.
For test [5], the target named is 5-hydroxytryptamine receptor 2A (Homo sapiens) (UniProt P28223).
Description: PDSP Primary Binding target: HTR2A - Compounds are tested at 10 uM concentration, plate are incubated at room temperature in the dark for 90 minutes. Reaction are stopped by vacuum filtration onto 0.3% polyethyleneimine soaked filter mats using Filtermate harvester. Scintilation cocktail is then melted onto microwave-dried filters on a hot plate and the radio activity is counted in Microbia counter.
Test [6] addresses 5-hydroxytryptamine receptor 1D (Homo sapiens) (UniProt P28221).
Description: PDSP Primary Binding target: HTR1D - Compounds are tested at 10 uM concentration, plate are incubated at room temperature in the dark for 90 minutes. Reaction are stopped by vacuum filtration onto 0.3% polyethyleneimine soaked filter mats using Filtermate harvester. Scintilation cocktail is then melted onto microwave-dried filters on a hot plate and the radio activity is counted in Microbia counter.
Test [7] deals with 5-hydroxytryptamine receptor 5A (Homo sapiens) (UniProt P47898).
Description: PDSP Primary Binding target: HTR5A - Compounds are tested at 10 uM concentration, plate are incubated at room temperature in the dark for 90 minutes. Reaction are stopped by vacuum filtration onto 0.3% polyethyleneimine soaked filter mats using Filtermate harvester. Scintilation cocktail is then melted onto microwave-dried filters on a hot plate and the radio activity is counted in Microbia counter.
Test [8] has as its target T3, Muscarinic acetylcholine receptor M5 (Homo sapiens) (UniProt P08912).
T3 sequence (whole entry): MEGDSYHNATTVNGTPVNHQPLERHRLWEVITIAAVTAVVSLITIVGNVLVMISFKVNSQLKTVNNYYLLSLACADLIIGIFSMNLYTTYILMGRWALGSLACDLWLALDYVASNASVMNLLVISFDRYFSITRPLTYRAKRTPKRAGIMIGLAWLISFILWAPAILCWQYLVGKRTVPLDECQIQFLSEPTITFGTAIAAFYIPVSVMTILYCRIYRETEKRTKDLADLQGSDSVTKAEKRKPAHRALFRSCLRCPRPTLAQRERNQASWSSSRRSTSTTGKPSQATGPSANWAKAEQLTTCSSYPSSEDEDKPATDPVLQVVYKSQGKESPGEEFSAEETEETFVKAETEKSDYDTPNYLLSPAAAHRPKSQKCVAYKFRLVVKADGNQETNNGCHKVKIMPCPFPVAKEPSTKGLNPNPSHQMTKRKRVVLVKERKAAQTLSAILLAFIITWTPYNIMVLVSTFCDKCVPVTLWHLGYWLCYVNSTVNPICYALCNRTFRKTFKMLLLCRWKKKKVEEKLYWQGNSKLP
Description: PDSP Primary Binding target: CHRM5 - Compounds are tested at 10 uM concentration, plate are incubated at room temperature in the dark for 90 minutes. Reaction are stopped by vacuum filtration onto 0.3% polyethyleneimine soaked filter mats using Filtermate harvester. Scintilation cocktail is then melted onto microwave-dried filters on a hot plate and the radio activity is counted in Microbia counter.

Test [9] concerns the target Sodium-dependent dopamine transporter (Homo sapiens) (UniProt Q01959).
Description: PDSP Primary Binding target: SLC6A3 - Compounds are tested at 10 uM concentration, plate are incubated at room temperature in the dark for 90 minutes. Reaction are stopped by vacuum filtration onto 0.3% polyethyleneimine soaked filter mats using Filtermate harvester. Scintilation cocktail is then melted onto microwave-dried filters on a hot plate and the radio activity is counted in Microbia counter.
The target in test [10] is T4, Alpha-1D adrenergic receptor (Homo sapiens) (UniProt P25100).
T4 sequence (whole entry): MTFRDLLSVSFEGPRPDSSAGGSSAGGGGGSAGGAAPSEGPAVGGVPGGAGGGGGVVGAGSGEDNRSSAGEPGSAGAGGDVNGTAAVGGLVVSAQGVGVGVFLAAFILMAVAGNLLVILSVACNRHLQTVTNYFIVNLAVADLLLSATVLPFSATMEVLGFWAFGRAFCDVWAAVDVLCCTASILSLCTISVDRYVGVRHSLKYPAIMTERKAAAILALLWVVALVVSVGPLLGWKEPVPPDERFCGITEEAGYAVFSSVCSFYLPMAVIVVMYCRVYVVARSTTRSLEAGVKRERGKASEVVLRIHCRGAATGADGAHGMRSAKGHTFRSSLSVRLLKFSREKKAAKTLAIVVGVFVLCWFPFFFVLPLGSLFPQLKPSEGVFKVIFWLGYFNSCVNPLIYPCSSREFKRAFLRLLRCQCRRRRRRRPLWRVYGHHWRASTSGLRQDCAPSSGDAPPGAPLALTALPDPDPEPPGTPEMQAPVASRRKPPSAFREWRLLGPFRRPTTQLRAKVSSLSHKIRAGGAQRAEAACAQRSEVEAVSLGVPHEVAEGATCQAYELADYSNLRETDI
Description: PDSP Primary Binding target: ADRA1D - Compounds are tested at 10 uM concentration, plate are incubated at room temperature in the dark for 90 minutes. Reaction are stopped by vacuum filtration onto 0.3% polyethyleneimine soaked filter mats using Filtermate harvester. Scintilation cocktail is then melted onto microwave-dried filters on a hot plate and the radio activity is counted in Microbia counter.

Test [11] addresses Mu-type opioid receptor (Homo sapiens) (UniProt P35372).
Description: PDSP Primary Binding target: OPRM1 - Compounds are tested at 10 uM concentration, plate are incubated at room temperature in the dark for 90 minutes. Reaction are stopped by vacuum filtration onto 0.3% polyethyleneimine soaked filter mats using Filtermate harvester. Scintilation cocktail is then melted onto microwave-dried filters on a hot plate and the radio activity is counted in Microbia counter.
Test [12] deals with Histamine H2 receptor (Homo sapiens) (UniProt P25021).
Description: PDSP Primary Binding target: HRH2 - Compounds are tested at 10 uM concentration, plate are incubated at room temperature in the dark for 90 minutes. Reaction are stopped by vacuum filtration onto 0.3% polyethyleneimine soaked filter mats using Filtermate harvester. Scintilation cocktail is then melted onto microwave-dried filters on a hot plate and the radio activity is counted in Microbia counter.
Test [13] concerns the target Histamine H3 receptor (Homo sapiens) (UniProt Q9Y5N1).
Description: PDSP Primary Binding target: HRH3 - Compounds are tested at 10 uM concentration, plate are incubated at room temperature in the dark for 90 minutes. Reaction are stopped by vacuum filtration onto 0.3% polyethyleneimine soaked filter mats using Filtermate harvester. Scintilation cocktail is then melted onto microwave-dried filters on a hot plate and the radio activity is counted in Microbia counter.
For test [14], the target named is Histamine H1 receptor (Homo sapiens) (UniProt P35367).
Description: PDSP Primary Binding target: HRH1 - Compounds are tested at 10 uM concentration, plate are incubated at room temperature in the dark for 90 minutes. Reaction are stopped by vacuum filtration onto 0.3% polyethyleneimine soaked filter mats using Filtermate harvester. Scintilation cocktail is then melted onto microwave-dried filters on a hot plate and the radio activity is counted in Microbia counter.
The target of test [15] is 5-hydroxytryptamine receptor 1E (Homo sapiens) (UniProt P28566).
Description: PDSP Primary Binding target: HTR1E - Compounds are tested at 10 uM concentration, plate are incubated at room temperature in the dark for 90 minutes. Reaction are stopped by vacuum filtration onto 0.3% polyethyleneimine soaked filter mats using Filtermate harvester. Scintilation cocktail is then melted onto microwave-dried filters on a hot plate and the radio activity is counted in Microbia counter.
The target of test [16] is Sodium-dependent serotonin transporter (Homo sapiens) (UniProt P31645).
Chain of Sodium-dependent serotonin transporter (Homo sapiens) (P31645 whole entry, looked up): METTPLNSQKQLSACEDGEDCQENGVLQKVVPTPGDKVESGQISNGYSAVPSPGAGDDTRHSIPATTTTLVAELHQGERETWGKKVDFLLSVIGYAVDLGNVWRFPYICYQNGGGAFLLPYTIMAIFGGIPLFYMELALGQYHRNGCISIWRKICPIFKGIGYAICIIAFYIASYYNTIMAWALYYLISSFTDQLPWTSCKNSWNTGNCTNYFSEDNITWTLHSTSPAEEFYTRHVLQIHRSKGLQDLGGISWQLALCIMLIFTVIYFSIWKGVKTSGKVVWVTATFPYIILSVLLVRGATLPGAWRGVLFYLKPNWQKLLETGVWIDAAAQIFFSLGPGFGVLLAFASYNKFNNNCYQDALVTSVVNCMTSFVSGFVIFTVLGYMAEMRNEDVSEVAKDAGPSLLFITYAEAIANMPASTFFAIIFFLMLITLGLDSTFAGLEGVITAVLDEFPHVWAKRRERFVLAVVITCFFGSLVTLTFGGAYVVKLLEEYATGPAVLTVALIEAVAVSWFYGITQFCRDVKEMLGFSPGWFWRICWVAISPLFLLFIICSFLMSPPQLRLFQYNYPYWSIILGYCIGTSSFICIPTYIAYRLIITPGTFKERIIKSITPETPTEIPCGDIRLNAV
Description: PDSP Primary Binding target: SLC6A4 - Compounds are tested at 10 uM concentration, plate are incubated at room temperature in the dark for 90 minutes. Reaction are stopped by vacuum filtration onto 0.3% polyethyleneimine soaked filter mats using Filtermate harvester. Scintilation cocktail is then melted onto microwave-dried filters on a hot plate and the radio activity is counted in Microbia counter.

Chain of Histamine H2 receptor (Homo sapiens) (P25021 whole entry): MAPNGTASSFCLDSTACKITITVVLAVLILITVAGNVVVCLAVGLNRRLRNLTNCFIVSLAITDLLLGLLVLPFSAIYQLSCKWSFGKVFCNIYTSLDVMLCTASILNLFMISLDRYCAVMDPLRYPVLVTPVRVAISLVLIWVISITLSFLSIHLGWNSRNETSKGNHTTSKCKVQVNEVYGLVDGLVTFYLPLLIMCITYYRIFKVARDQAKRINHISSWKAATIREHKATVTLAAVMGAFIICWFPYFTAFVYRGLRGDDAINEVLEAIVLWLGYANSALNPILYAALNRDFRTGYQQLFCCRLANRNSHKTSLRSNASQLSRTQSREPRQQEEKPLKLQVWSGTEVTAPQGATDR
Chain of 5-hydroxytryptamine receptor 5A (Homo sapiens) (P47898 whole entry): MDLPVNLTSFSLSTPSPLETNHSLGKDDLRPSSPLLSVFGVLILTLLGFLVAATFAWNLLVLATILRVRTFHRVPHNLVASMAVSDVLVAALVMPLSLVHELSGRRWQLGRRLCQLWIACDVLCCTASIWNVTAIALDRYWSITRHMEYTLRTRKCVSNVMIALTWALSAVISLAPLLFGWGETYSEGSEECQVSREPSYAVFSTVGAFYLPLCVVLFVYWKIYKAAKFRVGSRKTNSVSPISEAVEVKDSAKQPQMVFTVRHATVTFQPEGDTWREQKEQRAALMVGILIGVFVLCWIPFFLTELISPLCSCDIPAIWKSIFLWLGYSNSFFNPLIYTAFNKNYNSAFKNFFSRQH
Chain of 5-hydroxytryptamine receptor 1E (Homo sapiens) (P28566 whole entry): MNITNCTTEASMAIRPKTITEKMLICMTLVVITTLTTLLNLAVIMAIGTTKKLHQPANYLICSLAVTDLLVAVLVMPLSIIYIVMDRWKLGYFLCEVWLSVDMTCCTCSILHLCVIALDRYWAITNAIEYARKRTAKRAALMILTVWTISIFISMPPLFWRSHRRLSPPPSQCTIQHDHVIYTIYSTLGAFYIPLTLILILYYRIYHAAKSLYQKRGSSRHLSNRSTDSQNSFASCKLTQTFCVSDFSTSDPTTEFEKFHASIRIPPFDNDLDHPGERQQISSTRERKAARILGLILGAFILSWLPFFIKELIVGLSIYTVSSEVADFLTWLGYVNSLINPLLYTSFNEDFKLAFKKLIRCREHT
Chain of 5-hydroxytryptamine receptor 2A (Homo sapiens) (P28223 whole entry): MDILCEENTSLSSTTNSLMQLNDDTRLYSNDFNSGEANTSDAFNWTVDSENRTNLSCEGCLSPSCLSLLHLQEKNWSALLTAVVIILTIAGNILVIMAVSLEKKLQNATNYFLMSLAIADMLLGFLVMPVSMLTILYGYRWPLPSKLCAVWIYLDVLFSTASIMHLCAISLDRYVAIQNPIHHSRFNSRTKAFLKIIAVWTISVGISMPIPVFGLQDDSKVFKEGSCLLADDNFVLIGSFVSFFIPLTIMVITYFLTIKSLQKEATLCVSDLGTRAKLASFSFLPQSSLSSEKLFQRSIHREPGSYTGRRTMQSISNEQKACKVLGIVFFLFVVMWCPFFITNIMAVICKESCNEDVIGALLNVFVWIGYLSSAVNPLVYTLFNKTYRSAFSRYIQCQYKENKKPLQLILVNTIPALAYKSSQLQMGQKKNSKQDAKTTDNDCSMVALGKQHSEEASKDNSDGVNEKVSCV
Chain of Mu-type opioid receptor (Homo sapiens) (P35372 whole entry): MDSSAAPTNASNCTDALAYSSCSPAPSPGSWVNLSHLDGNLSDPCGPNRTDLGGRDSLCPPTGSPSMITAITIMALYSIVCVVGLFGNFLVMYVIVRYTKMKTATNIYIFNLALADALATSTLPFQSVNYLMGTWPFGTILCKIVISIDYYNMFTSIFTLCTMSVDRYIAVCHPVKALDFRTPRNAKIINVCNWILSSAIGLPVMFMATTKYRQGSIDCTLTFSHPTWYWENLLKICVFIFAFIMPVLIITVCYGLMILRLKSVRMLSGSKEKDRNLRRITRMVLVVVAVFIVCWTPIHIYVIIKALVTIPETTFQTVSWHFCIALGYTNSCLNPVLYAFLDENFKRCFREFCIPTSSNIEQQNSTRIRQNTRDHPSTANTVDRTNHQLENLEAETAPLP
Chain of Histamine H1 receptor (Homo sapiens) (P35367 whole entry): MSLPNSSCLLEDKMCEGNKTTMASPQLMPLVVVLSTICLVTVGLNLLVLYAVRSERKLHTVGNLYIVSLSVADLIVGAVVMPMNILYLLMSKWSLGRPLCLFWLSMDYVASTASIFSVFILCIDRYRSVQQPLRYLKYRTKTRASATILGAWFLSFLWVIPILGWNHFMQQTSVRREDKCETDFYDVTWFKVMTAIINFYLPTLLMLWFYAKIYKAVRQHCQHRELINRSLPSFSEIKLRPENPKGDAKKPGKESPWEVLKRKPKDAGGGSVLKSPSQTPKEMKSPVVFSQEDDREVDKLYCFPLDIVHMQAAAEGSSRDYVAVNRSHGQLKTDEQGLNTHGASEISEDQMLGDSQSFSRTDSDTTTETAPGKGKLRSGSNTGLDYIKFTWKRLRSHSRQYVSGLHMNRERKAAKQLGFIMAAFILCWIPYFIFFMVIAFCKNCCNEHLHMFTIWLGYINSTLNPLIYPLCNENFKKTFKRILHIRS
Chain of Beta-1 adrenergic receptor (Homo sapiens) (P08588 whole entry, looked up): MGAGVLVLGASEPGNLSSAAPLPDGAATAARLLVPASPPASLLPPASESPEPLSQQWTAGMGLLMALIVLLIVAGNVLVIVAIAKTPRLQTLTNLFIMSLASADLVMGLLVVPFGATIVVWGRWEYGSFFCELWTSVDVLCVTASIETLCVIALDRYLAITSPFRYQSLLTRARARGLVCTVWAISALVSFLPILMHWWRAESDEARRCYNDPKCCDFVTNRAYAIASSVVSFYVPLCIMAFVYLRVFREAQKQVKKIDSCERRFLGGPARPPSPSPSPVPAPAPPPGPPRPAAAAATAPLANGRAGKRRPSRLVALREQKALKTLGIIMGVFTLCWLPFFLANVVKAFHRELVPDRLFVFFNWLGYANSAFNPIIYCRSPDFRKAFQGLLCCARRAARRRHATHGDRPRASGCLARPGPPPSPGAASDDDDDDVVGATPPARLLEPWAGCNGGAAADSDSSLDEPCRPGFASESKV
Chain of 5-hydroxytryptamine receptor 1D (Homo sapiens) (P28221 whole entry): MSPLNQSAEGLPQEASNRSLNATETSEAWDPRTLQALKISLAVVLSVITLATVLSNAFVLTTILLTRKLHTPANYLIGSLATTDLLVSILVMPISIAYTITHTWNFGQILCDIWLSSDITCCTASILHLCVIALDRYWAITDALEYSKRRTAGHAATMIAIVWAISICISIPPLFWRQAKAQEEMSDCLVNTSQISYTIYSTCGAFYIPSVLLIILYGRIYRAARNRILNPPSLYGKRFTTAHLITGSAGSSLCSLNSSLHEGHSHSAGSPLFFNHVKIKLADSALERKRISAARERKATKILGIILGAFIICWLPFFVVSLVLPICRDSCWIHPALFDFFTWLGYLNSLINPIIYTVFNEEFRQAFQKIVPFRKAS
Chain of Sodium-dependent dopamine transporter (Homo sapiens) (Q01959 whole entry): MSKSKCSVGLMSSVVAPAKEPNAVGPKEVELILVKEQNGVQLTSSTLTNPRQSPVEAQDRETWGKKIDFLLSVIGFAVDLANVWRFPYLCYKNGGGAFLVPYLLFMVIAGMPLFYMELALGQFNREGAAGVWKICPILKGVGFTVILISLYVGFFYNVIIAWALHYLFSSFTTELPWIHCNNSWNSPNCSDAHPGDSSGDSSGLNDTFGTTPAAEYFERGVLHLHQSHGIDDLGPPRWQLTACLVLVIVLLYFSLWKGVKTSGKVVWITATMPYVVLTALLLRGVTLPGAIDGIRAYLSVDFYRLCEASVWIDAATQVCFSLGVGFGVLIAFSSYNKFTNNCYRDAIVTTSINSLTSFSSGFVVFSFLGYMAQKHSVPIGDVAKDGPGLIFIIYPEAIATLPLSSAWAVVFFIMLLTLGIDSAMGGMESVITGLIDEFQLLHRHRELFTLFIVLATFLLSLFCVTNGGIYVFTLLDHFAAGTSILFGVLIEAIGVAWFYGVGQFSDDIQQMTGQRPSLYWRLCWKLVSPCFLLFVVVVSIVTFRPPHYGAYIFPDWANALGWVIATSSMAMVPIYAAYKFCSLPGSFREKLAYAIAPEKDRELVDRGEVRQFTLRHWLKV
Chain of 5-hydroxytryptamine receptor 1B (Homo sapiens) (P28222 whole entry): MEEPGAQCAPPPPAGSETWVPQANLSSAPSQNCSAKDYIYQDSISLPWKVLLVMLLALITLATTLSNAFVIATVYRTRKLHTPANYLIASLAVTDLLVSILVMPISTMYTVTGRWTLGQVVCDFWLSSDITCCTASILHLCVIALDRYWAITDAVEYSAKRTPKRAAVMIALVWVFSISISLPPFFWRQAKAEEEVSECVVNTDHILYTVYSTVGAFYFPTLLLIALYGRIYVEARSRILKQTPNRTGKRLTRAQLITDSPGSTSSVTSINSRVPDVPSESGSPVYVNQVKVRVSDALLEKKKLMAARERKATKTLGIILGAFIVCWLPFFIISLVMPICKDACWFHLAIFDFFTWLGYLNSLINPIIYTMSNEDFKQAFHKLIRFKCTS

As for `COc1ccc(/C=C/CCCCOc2ccc(C(=O)c3cccc(C(=O)O)c3)cc2CCC(=O)O)cc1`, the inhibition in test [1] is 49.6%; in test [2] it was 30.3%; in test [3], 11.7%; in test [4], 29.9%; in [5], 33.6%; in test [6], 31.8%. In addition, the inhibition in test [7] was -8.69%; in test [8] it was 3.16%; in test [9] it was 23.6%; in test [10], 1.82%; in test [11] it was 22.4%; in test [12], 21.3%. Besides, the inhibition in [13] was 10.8%; in [14], 18.1%; in [15], 8.42%; in [16], 11.1%.
Regarding `COc1cccc([C@@H](C)NCCCc2ccccc2Cl)c1`, the inhibition in [1] is 15.9%; in test [2], 54.6%; in [3] it was 24%; in test [4], 22.4%; in test [5] it was 91.1%; in test [6], 33.7%. Moreover, the inhibition in test [7] was 61.2%; in test [8], 9.55%; in [9], 31.1%; in [10] it was 20.3%; in test [11], 57.2%; in test [12], 72.6%. For the same molecule, the inhibition was 26.7% in test [13], 70.6% in test [14], 4.34% in test [15] and 26.1% in test [16].
Regarding `COc1ccc(NS(=O)(=O)c2sc3ccc(Cl)cc3c2C)cc1N1CCNCC1`, the inhibition in [1] was 50.6%; in test [2], 67.4%; in test [3], 39.7%; in [4], 48.8%; in test [5], 37.4%; in test [6] it was 66.8%. Further, the inhibition in test [7] is 58.1%; in [8], 16.8%; in test [9], 63.1%; in [10], 33%; in [11], 56.3%; in [12] it was 13.5%. Moreover, the inhibition in test [13] was 16.6%; in test [14], 15.6%; in [15], 13.8%; in test [16] it was 37.7%.
With `CCc1ccc(OCc2ccccc2C(=O)Nc2ccc3nc(C)cc(N)c3c2)cc1`, the inhibition was 3.07% in [1]; 9.8% in test [2]; 45.6% in test [3]; 46.6% in test [4]; 83.4% in test [5]; 59.3% in test [6]. The inhibition is 52.3% in test [7]; 24% in [8]; 68.4% in test [9]; 57.8% in test [10]; 81.7% in test [11]; 46.7% in test [12]. Moreover, the inhibition in [14] is 7.44%; in test [15], 9.69%; in [16] it was 36%.
Consider `CN1C2CCC1CC(OC(c1ccc(F)cc1)c1ccc(F)cc1)C2` (stereo not drawn), for which the inhibition in test [1] was 33%; in test [2], 21.6%; in test [3] it was 98.7%; in test [4] it was 27.7%; in test [5] it was 99.6%; in test [6], 74%. Moreover, the inhibition in test [7] is 83.1%; in [8] it was 94.5%; in test [9] it was 96.9%; in test [10], 91.5%; in test [11], 59.1%; in [12], 86.9%. Also, the inhibition in [13] was -0.82%; in test [15] it was 14.3%; in [16], 15.4%.
Take `Clc1cccc(COc2cncc(N3CCNCC3)n2)c1`: the inhibition is 50.8% in [1]; 86% in test [2]; 11.2% in test [3]; 89% in test [4]; 99% in [5]; 89.1% in test [6]. Further, the inhibition was 13.2% in [7]; 85.1% in test [8]; 33.5% in test [9]; 22.3% in [10]; 0.78% in test [11]; 14.4% in [12]. In addition, the inhibition in test [13] is 20.2%; in test [14], 55.6%; in [15] it was 76%; in test [16], 2.44%.
In the case of `COc1ccc(S(=O)(=O)N2c3ccc(Cl)cc3[C@](O)(c3ccccc3Cl)[C@@H]2C(=O)N2CCC[C@H]2C(N)=O)cc1OC`, the inhibition in test [1] was 28.5%; in [2], 8.75%; in test [3], -4.04%; in [5] it was -2.13%; in test [6], 6.02%; in [7], -7.91%. The inhibition is 7.17% in [8]; 42.4% in test [9]; 10.8% in test [10]; 38.8% in test [11]; 15.4% in test [12]; 7.89% in test [13]. The inhibition was 5.97% in test [14] and 46.5% in [16].
